What was measured:
Format in all cases: in vivo
[1] = system: wheat (Triticum aestivum); assay: Test A postemergence application; settings: approx. 10 days
Source text: (§1) Seeds of plant species selected from barnyardgrass (Echinochloa crus-galli), kochia (Kochia scoparia), ragweed (common ragweed, Ambrosia elatior), Italian ryegrass (Lolium multiflorum), giant foxtail (Setaria faberii), and pigweed (Amaranthus retroflexus) were planted into a blend of loam soil and sand and treated preemergence with a directed soil spray using test chemicals formulated in a non-phytotoxic solvent mixture which included a surfactant. At the same time, plants selected from these weed species and also wheat (Triticum aestivum), corn (Zea mays), blackgrass (Alopecurus myosuroides), and galium (catchweed bedstraw, Galium aparine) were planted in pots containing the same blend of loam soil and sand and treated with postemergence applications of test chemicals formulated in the same manner. Plants ranged in height from 2 to 10 cm and were in the one- to two-leaf stage for the postemergence treatment. Treated plants and untreated controls were maintained in a greenhouse for approximately 10 days, after which time all treated plants were compared to untreated controls and visually evaluated for injury. Plant response ratings, summarized in Table A, are based on a 0 to 100 scale where 0 is no effect and 100 is complete control. A dash (-) response means no test result.

[2] = system: galium (catchweed bedstraw, Galium aparine); assay: Test A postemergence application; settings: approx. 10 days
Source text: as §1

kochia (Kochia scoparia) [3] = assay: Test A postemergence application; settings: approx. 10 days
Source text: as §1

[4] = system: blackgrass (Alopecurus myosuroides); assay: Test A postemergence application; settings: approx. 10 days
Source text: as §1

corn (Zea mays) [5] = assay: Test A postemergence application; settings: approx. 10 days
Source text: as §1

[6] = system: giant foxtail (Setaria faberii); assay: Test A postemergence application; settings: approx. 10 days
Source text: as §1

[7] = system: barnyardgrass (Echinochloa crus-galli); assay: Test A postemergence application; settings: approx. 10 days
Source text: as §1

[8] = system: Italian ryegrass (Lolium multiflorum); assay: Test A postemergence application; settings: approx. 10 days
Source text: as §1

[9] = system: ragweed (common ragweed, Ambrosia elatior); assay: Test A postemergence application; settings: approx. 10 days
Source text: as §1

[10] = system: pigweed (Amaranthus retroflexus); assay: Test A postemergence application; settings: approx. 10 days
Source text: as §1

soybean (Glycine max) = assay: Test C preemergence; settings: scale 0 to 100, 0 is no effect, 100 is complete control
Source text: (§2) Seeds of plant species selected from blackgrass (Alopecurus myosuroides), Italian ryegrass (Lolium multiflorum), winter wheat (Triticum aestivum), galium (catchweed bedstraw, Galium aparine), corn (Zea mays), large (Lg) crabgrass (Digitaria sanguinalis), giant foxtail (Setaria faberii), johnsongrass (Sorghum halepense), lambsquarters (Chenopodium album), morningglory (Ipomoea coccinea), yellow nutsedge (Cyperus esculentus), pigweed (Amaranthus retroflexus), ragweed (common ragweed, Ambrosia elatior), soybean (Glycine max), barnyardgrass (Echinochloa crus-galli), oilseed rape (Brassica napus), waterhemp (common waterhemp, Amaranthus rudis), and velvetleaf (Abutilon theophrasti) were planted into a blend of loam soil and sand and treated preemergence with test chemicals formulated in a non-phytotoxic solvent mixture which included a surfactant. At the same time, plants selected from these crop and weed species and also chickweed (common chickweed, Stellaria media), kochia (Kochia scoparia), and wild oat (Avena fatua), were planted in pots containing Sunshine Redi-Earth® planting medium comprising spaghnum peat moss, vermiculite, starter nutrients and dolomitic limestone and treated with postemergence applications of test chemicals formulated in the same manner. Plants ranged in height from 2 to 18 cm (1- to 4-leaf stage) for postemergence treatments. Treated plants and controls were maintained in a greenhouse for 13 to 15 days, after which time all species were compared to controls and visually evaluated. Plant response ratings, summarized in Table C, are based on a scale of 0 to 100 where 0 is no effect and 100 is complete control. A dash (-) response means no test result.

[11] = system: johnsongrass (Sorghum halepense); assay: Test C preemergence; settings: scale 0 to 100, 0 is no effect, 100 is complete control
Source text: as §2

[12] = system: galium (catchweed bedstraw, Galium aparine); assay: Test C postemergence; settings: scale 0 to 100, 0 is no effect, 100 is complete control
Source text: as §2

[13] = system: velvetleaf (Abutilon theophrasti); assay: Test C postemergence; settings: scale 0 to 100, 0 is no effect, 100 is complete control
Source text: as §2

corn (Zea mays) [14] = assay: Test C postemergence; settings: scale 0 to 100, 0 is no effect, 100 is complete control
Source text: as §2

[15] = system: waterhemp (common waterhemp, Amaranthus rudis); assay: Test C postemergence; settings: scale 0 to 100, 0 is no effect, 100 is complete control
Source text: as §2

[16] = system: Italian ryegrass (Lolium multiflorum); assay: Test C postemergence; settings: scale 0 to 100, 0 is no effect, 100 is complete control
Source text: as §2

[17] = system: large (Lg) crabgrass (Digitaria sanguinalis); assay: Test C postemergence; settings: scale 0 to 100, 0 is no effect, 100 is complete control
Source text: as §2

kochia (Kochia scoparia) [18] = assay: Test A preemergence, directed soil spray; settings: approx. 10 days
Source text: as §1

[19] = system: giant foxtail (Setaria faberii); assay: Test A preemergence, directed soil spray; settings: approx. 10 days
Source text: as §1

[20] = system: barnyardgrass (Echinochloa crus-galli); assay: Test A preemergence, directed soil spray; settings: approx. 10 days
Source text: as §1

[21] = system: Italian ryegrass (Lolium multiflorum); assay: Test A preemergence, directed soil spray; settings: approx. 10 days
Source text: as §1

[22] = system: ragweed (common ragweed, Ambrosia elatior); assay: Test A preemergence, directed soil spray; settings: approx. 10 days
Source text: as §1

[23] = system: pigweed (Amaranthus retroflexus); assay: Test A preemergence, directed soil spray; settings: approx. 10 days
Source text: as §1

Structure (SMILES): O=c1cccc(Oc2ncc(Cl)cn2)n1-c1ccc(Cl)cc1 [Compound 1, 1-(4-chlorophenyl)-6-[(5-chloro-2-pyrimidinyl)oxy]-2(1H)-pyridinone]
- Plant response rating (0 to 100 scale, 0 no effect, 100 complete control), Wheat ([1]; 125 g ai/ha): 30
- Plant response rating (0 to 100 scale, 0 no effect, 100 complete control), Wheat ([1]; 500 g ai/ha): 40
- Plant response rating (0 to 100 scale, 0 no effect, 100 complete control), Galium ([2]; 125 g ai/ha): 50
- Plant response rating (0 to 100 scale, 0 no effect, 100 complete control), Galium ([2]; 500 g ai/ha): 100
- Plant response rating (0 to 100 scale, 0 no effect, 100 complete control), Kochia (kochia (Kochia scoparia) [3]; 125 g ai/ha): 90
- Plant response rating (0 to 100 scale, 0 no effect, 100 complete control), Kochia (kochia (Kochia scoparia) [3]; 500 g ai/ha): 100
- Plant response rating (0 to 100 scale, 0 no effect, 100 complete control), Blackgrass ([4]; 125 g ai/ha): 20
- Plant response rating (0 to 100 scale, 0 no effect, 100 complete control), Blackgrass ([4]; 500 g ai/ha): 90
- Plant response rating (0 to 100 scale, 0 no effect, 100 complete control), Corn (corn (Zea mays) [5]; 125 g ai/ha): 30
- Plant response rating (0 to 100 scale, 0 no effect, 100 complete control), Corn (corn (Zea mays) [5]; 500 g ai/ha): 30
- Plant response rating (0 to 100 scale, 0 no effect, 100 complete control), Foxtail, Giant ([6]; 125 g ai/ha): 70
- Plant response rating (0 to 100 scale, 0 no effect, 100 complete control), Foxtail, Giant ([6]; 500 g ai/ha): 100
- Plant response rating (0 to 100 scale, 0 no effect, 100 complete control), Barnyardgrass ([7]; 125 g ai/ha): 20
- Plant response rating (0 to 100 scale, 0 no effect, 100 complete control), Barnyardgrass ([7]; 500 g ai/ha): 100
- Plant response rating (0 to 100 scale, 0 no effect, 100 complete control), Ryegrass, Italian ([8]; 125 g ai/ha): 0
- Plant response rating (0 to 100 scale, 0 no effect, 100 complete control), Ryegrass, Italian ([8]; 500 g ai/ha): 70
- Plant response rating (0 to 100 scale, 0 no effect, 100 complete control), Ragweed ([9]; 125 g ai/ha): 20
- Plant response rating (0 to 100 scale, 0 no effect, 100 complete control), Ragweed ([9]; 500 g ai/ha): 20
- Plant response rating (0 to 100 scale, 0 no effect, 100 complete control), Pigweed ([10]; 125 g ai/ha): 100
- Plant response rating (0 to 100 scale, 0 no effect, 100 complete control), Pigweed ([10]; 500 g ai/ha): 100
- Plant response rating, Soybean (soybean (Glycine max); 16 g ai/ha): 0
- Plant response rating, Soybean (soybean (Glycine max); 31 g ai/ha): 10
- Plant response rating, Soybean (soybean (Glycine max); 62 g ai/ha): 10
- Plant response rating, Johnsongrass ([11]; 16 g ai/ha): 0
- Plant response rating, Johnsongrass ([11]; 31 g ai/ha): 0
- Plant response rating, Johnsongrass ([11]; 62 g ai/ha): 5
- Plant response rating, Johnsongrass ([11]; 125 g ai/ha): 15
- Plant response rating, Galium ([12]; 16 g ai/ha): 40
- Plant response rating, Galium ([12]; 31 g ai/ha): 45
- Plant response rating, Galium ([12]; 62 g ai/ha): 80
- Plant response rating, Galium ([12]; 125 g ai/ha): 85
- Plant response rating, Velvetleaf ([13]; 16 g ai/ha): 10
- Plant response rating, Velvetleaf ([13]; 31 g ai/ha): 10
- Plant response rating, Velvetleaf ([13]; 62 g ai/ha): 20
- Plant response rating, Velvetleaf ([13]; 125 g ai/ha): 25
- Plant response rating, Corn (corn (Zea mays) [14]; 16 g ai/ha): 5
- Plant response rating, Corn (corn (Zea mays) [14]; 31 g ai/ha): 5
- Plant response rating, Corn (corn (Zea mays) [14]; 62 g ai/ha): 10
- Plant response rating, Corn (corn (Zea mays) [14]; 125 g ai/ha): 10
- Plant response rating, Waterhemp ([15]; 16 g ai/ha): 25
- Plant response rating, Waterhemp ([15]; 31 g ai/ha): 80
- Plant response rating, Waterhemp ([15]; 62 g ai/ha): 70
- Plant response rating, Waterhemp ([15]; 125 g ai/ha): 90
- Plant response rating, Ryegrass, Italian ([16]; 16 g ai/ha): 5
- Plant response rating, Ryegrass, Italian ([16]; 31 g ai/ha): 5
- Plant response rating, Ryegrass, Italian ([16]; 62 g ai/ha): 5
- Plant response rating, Ryegrass, Italian ([16]; 125 g ai/ha): 10
- Plant response rating, Crabgrass, Large ([17]; 16 g ai/ha): 10
- Plant response rating, Crabgrass, Large ([17]; 31 g ai/ha): 15
- Plant response rating, Crabgrass, Large ([17]; 62 g ai/ha): 15
- Plant response rating, Crabgrass, Large ([17]; 125 g ai/ha): 20
- Plant response rating (0 to 100 scale, 0 no effect, 100 complete control), Kochia (kochia (Kochia scoparia) [18]; 125 g ai/ha): 40
- Plant response rating (0 to 100 scale, 0 no effect, 100 complete control), Kochia (kochia (Kochia scoparia) [18]; 500 g ai/ha): 100
- Plant response rating (0 to 100 scale, 0 no effect, 100 complete control), Foxtail, Giant ([19]; 125 g ai/ha): 90
- Plant response rating (0 to 100 scale, 0 no effect, 100 complete control), Foxtail, Giant ([19]; 500 g ai/ha): 100
- Plant response rating (0 to 100 scale, 0 no effect, 100 complete control), Barnyardgrass ([20]; 125 g ai/ha): 30
- Plant response rating (0 to 100 scale, 0 no effect, 100 complete control), Barnyardgrass ([20]; 500 g ai/ha): 100
- Plant response rating (0 to 100 scale, 0 no effect, 100 complete control), Ryegrass, Italian ([21]; 125 g ai/ha): 0
- Plant response rating (0 to 100 scale, 0 no effect, 100 complete control), Ryegrass, Italian ([21]; 500 g ai/ha): 20
- Plant response rating (0 to 100 scale, 0 no effect, 100 complete control), Ragweed ([22]; 125 g ai/ha): 0
- Plant response rating (0 to 100 scale, 0 no effect, 100 complete control), Ragweed ([22]; 500 g ai/ha): 20
- Plant response rating (0 to 100 scale, 0 no effect, 100 complete control), Pigweed ([23]; 125 g ai/ha): 40
- Plant response rating (0 to 100 scale, 0 no effect, 100 complete control), Pigweed ([23]; 500 g ai/ha): 100

Source: patent US9963442B2, “Pyridones as herbicides” (E I DU PONT DE NEMOURS AND COMPANY, priority 2014, dated 2018)
